Experimental data published in ChEMBL document CHEMBL4311974, “Synthesis of coumarin-sulfonamide derivatives and determination of their cytotoxicity, carbonic anhydrase inhibitory and molecular docking studies” (Eur J Med Chem, 2019).

What was measured:
HEK-293T = experiment: cells; format: ADME, cell-based; conditions: Homo sapiens, 24 h
Description: Cytotoxicity in HEK293T cells assessed as reduction in cell viability incubated for 24 hrs under hypoxic condition by MTT assay

Carbonic anhydrase 1 = Carbonic anhydrase 1 (Homo sapiens, UniProt P00915)
Description: Inhibition of human carbonic anhydrase 1 incubated for 10 mins prior to testing measured for 5 to 10 secs by phenol red-based stopped-flow CO2 hydration assay

Carbonic anhydrase 9 = Carbonic anhydrase 9 (Homo sapiens, UniProt Q16790)
Description: Inhibition of human carbonic anhydrase 9 incubated for 10 mins prior to testing measured for 5 to 10 secs by phenol red-based stopped-flow CO2 hydration assay

HT-29 = experiment: cells; format: functional, cell-based; conditions: Homo sapiens, HT-29, 24 h
Description: Cytotoxicity in human HT-29 cells assessed as reduction in cell viability incubated for 24 hrs under hypoxic condition by MTT assay

Carbonic anhydrase 2 = Carbonic anhydrase 2 (Homo sapiens, UniProt P00918)
Description: Inhibition of human carbonic anhydrase 2 incubated for 10 mins prior to testing measured for 5 to 10 secs by phenol red-based stopped-flow CO2 hydration assay

Carbonic anhydrase 12 = Carbonic anhydrase 12 (Homo sapiens, UniProt O43570)
Chain of Carbonic anhydrase 12 (O43570 whole entry): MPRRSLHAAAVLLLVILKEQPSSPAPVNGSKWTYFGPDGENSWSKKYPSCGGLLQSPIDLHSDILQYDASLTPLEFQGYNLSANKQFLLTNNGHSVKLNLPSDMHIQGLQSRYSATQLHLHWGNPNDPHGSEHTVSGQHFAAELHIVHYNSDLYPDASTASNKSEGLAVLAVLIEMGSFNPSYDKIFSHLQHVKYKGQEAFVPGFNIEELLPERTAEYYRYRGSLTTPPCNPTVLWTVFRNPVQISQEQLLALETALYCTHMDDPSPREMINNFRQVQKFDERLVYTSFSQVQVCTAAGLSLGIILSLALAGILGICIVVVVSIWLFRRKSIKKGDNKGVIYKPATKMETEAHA
Description: Inhibition of human carbonic anhydrase 12 incubated for 10 mins prior to testing measured for 5 to 10 secs by phenol red-based stopped-flow CO2 hydration assay

Chain of Carbonic anhydrase 1 (P00915 whole entry): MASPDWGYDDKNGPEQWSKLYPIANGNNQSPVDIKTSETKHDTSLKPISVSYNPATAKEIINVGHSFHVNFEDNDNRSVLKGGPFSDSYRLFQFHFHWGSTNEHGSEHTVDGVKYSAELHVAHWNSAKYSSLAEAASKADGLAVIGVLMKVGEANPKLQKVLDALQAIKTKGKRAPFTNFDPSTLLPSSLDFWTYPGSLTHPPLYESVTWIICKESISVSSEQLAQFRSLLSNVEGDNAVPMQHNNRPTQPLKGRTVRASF

Ki (Carbonic anhydrase 1) | Ki (Carbonic anhydrase 9) | IC50 (HT-29) | Ki (Carbonic anhydrase 2) | Ki (Carbonic anhydrase 12) | SMILES | IC50 (HEK-293T)
> 10 µM | 0.16 µM | 17.7 µM |  |  | NS(=O)(=O)c1ccc(C/N=C/c2cc(Br)ccc2OCc2cn(CCCOc3ccc4ccc(=O)oc4c3)nn2)cc1 | 8.25 µM
> 10 µM | 0.189 µM | 149 µM | > 10 µM | > 10 µM | O=Cc1c(OCc2cn(CCCOc3ccc4ccc(=O)oc4c3)nn2)ccc2ccccc12 | 
> 10 µM | 2.03 µM | 104 µM |  |  | C#CCOc1cccc(/C=N/Cc2ccc(S(N)(=O)=O)cc2)c1 | 
> 10 µM | 0.19 µM | 45.7 µM |  |  | C#CCOc1ccc(Br)cc1/C=N/Cc1ccc(S(N)(=O)=O)cc1 | 
> 10 µM | 1.17 µM | 13.3 µM | > 10 µM | > 10 µM | COc1cccc(C=O)c1OCc1cn(CCCOc2ccc3ccc(=O)oc3c2)nn1 | 30.4 µM
> 10 µM | 0.187 µM | 14.3 µM |  |  | NS(=O)(=O)c1ccc(C/N=C/c2ccccc2OCc2cn(CCCOc3ccc4ccc(=O)oc4c3)nn2)cc1 | 13.9 µM
> 10 µM | 0.76 µM | 31.6 µM |  |  | COc1cc(/C=N/Cc2ccc(S(N)(=O)=O)cc2)ccc1OCc1cn(CCCOc2ccc3ccc(=O)oc3c2)nn1 | 
> 10 µM | 0.198 µM | 62.8 µM |  |  | C#CCOc1cc(N(CC)CC)ccc1/C=N/Cc1ccc(S(N)(=O)=O)cc1 | 
> 10 µM | 0.128 µM | 18.9 µM |  |  | O=Cc1ccccc1OCc1cn(CCCOc2ccc3ccc(=O)oc3c2)nn1 | 13.7 µM
> 10 µM | 2.18 µM | 23.3 µM |  |  | CCN(CC)c1ccc(/C=N/Cc2ccc(S(N)(=O)=O)cc2)c(OCc2cn(CCCOc3ccc4ccc(=O)oc4c3)nn2)c1 | 29.5 µM
> 10 µM | 0.0812 µM | 136 µM |  |  | C#CCOc1ccc(/C=N/Cc2ccc(S(N)(=O)=O)cc2)cc1OC | 537 µM
> 10 µM | 0.212 µM | 34.8 µM |  |  | C#CCOc1ccc([N+](=O)[O-])cc1/C=N/Cc1ccc(S(N)(=O)=O)cc1 | 
> 10 µM | 0.133 µM | 65.4 µM | > 10 µM | > 10 µM | COc1cc(C=O)ccc1OCc1cn(CCCOc2ccc3ccc(=O)oc3c2)nn1 | 
> 10 µM | 0.169 µM | 125 µM |  |  | NS(=O)(=O)c1ccc(C/N=C/c2ccc(OCc3cn(CCCOc4ccc5ccc(=O)oc5c4)nn3)cc2)cc1 | 
> 10 µM | 0.196 µM | 7.47 µM | > 10 µM | > 10 µM | O=Cc1cc(Br)ccc1OCc1cn(CCCOc2ccc3ccc(=O)oc3c2)nn1 | 6.08 µM
> 10 µM | 1.48 µM | 52.5 µM |  |  | COc1cccc(/C=N/Cc2ccc(S(N)(=O)=O)cc2)c1OCc1cn(CCCOc2ccc3ccc(=O)oc3c2)nn1 | 
> 10 µM | 1.19 µM | 81.3 µM |  |  | C#CCOc1c(/C=N/Cc2ccc(S(N)(=O)=O)cc2)cccc1OC | 135 µM
> 10 µM | 0.158 µM | 9.03 µM | > 10 µM | > 10 µM | CCN(CC)c1ccc(C=O)c(OCc2cn(CCCOc3ccc4ccc(=O)oc4c3)nn2)c1 | 19.2 µM
> 10 µM | 0.231 µM | 14.1 µM |  |  | C#CCOc1ccc(/C=N/Cc2ccc(S(N)(=O)=O)cc2)cc1 | 398 µM
> 10 µM | 0.192 µM | 129 µM | > 10 µM |  | O=Cc1cccc(OCc2cn(CCCOc3ccc4ccc(=O)oc4c3)nn2)c1 | 
> 10 µM | 0.857 µM | 117 µM |  |  | NS(=O)(=O)c1ccc(C/N=C/c2cc([N+](=O)[O-])ccc2OCc2cn(CCCOc3ccc4ccc(=O)oc4c3)nn2)cc1 | 
> 10 µM | 1.07 µM | 31 µM |  |  | C#CCOc1ccccc1/C=N/Cc1ccc(S(N)(=O)=O)cc1 | 
 |  | 5.38 µM |  |  | COc1cccc2c1C(=O)c1c(O)c3c(c(O)c1C2=O)C[C@@](O)(C(=O)CO)C[C@@H]3O[C@H]1C[C@H](N)[C@H](O)[C@H](C)O1 [DOXORUBICIN] | 1.05 µM
> 10 µM | 0.955 µM | 107 µM |  |  | NS(=O)(=O)c1ccc(C/N=C/c2cccc(OCc3cn(CCCOc4ccc5ccc(=O)oc5c4)nn3)c2)cc1 | 
> 10 µM | 1.09 µM | 46.1 µM |  |  | C#CCOc1ccc2ccccc2c1/C=N/Cc1ccc(S(N)(=O)=O)cc1 | 
> 10 µM | 0.0455 µM | 17 µM |  |  | NS(=O)(=O)c1ccc(C/N=C/c2c(OCc3cn(CCCOc4ccc5ccc(=O)oc5c4)nn3)ccc3ccccc23)cc1 | 119 µM
> 10 µM | 0.171 µM | 100 µM | > 10 µM | > 10 µM | O=Cc1ccc(OCc2cn(CCCOc3ccc4ccc(=O)oc4c3)nn2)cc1 | 
> 10 µM | 0.137 µM | 53.6 µM | > 10 µM | > 10 µM | O=Cc1cc([N+](=O)[O-])ccc1OCc1cn(CCCOc2ccc3ccc(=O)oc3c2)nn1 | 
